Measurements from EPA's CvTdb concentration-time database.

Assays:
[1] = tested on: Rat; test: concentration in plasma after dosing; conditions: 0.25 h; dosed: 2-Hydroxy-4-methoxybenzophenone; 500 mg/kg; oral; Female; F344
[2] = tested on: Mouse; test: concentration in plasma after dosing; conditions: 3 h; dosed: 2-Hydroxy-4-methoxybenzophenone; 250 mg/kg; oral; Male; B6C3F1
[3] = tested on: Mouse; test: concentration in plasma after dosing; conditions: 3 h; dosed: 2-Hydroxy-4-methoxybenzophenone; 250 mg/kg; oral; Female; B6C3F1
[4] = tested on: Mouse; test: concentration in plasma after dosing; conditions: 2.5 min; dosed: 2-Hydroxy-4-methoxybenzophenone; 250 mg/kg; oral; Male; B6C3F1
[5] = tested on: Rat; test: concentration in plasma after dosing; conditions: dosed: 2-Hydroxy-4-methoxybenzophenone, 500 mg/kg, oral, Female, F344
[6] = tested on: Rat; test: concentration in plasma after dosing; conditions: dosed: 2-Hydroxy-4-methoxybenzophenone, 250 mg/kg, oral, Male, F344
[7] = tested on: Rat; test: concentration in plasma after dosing; conditions: dosed: 2-Hydroxy-4-methoxybenzophenone, 250 mg/kg, oral, Female, F344
[8] = tested on: Mouse; test: concentration in plasma after dosing; conditions: 10 min; dosed: 2-Hydroxy-4-methoxybenzophenone; 50 mg/kg; iv; Female; B6C3F1
[9] = tested on: Rat; test: concentration in plasma after dosing; conditions: dosed: 2-Hydroxy-4-methoxybenzophenone, 250 mg/kg, oral, Male, F344; remark: listed apart in the source
[10] = tested on: Rat; test: concentration in plasma after dosing; conditions: 0.25 h; dosed: 2-Hydroxy-4-methoxybenzophenone; 500 mg/kg; oral; Female; F344; remark: listed apart in the source
[11] = tested on: Mouse; test: concentration in plasma after dosing; conditions: 2 h; dosed: 2-Hydroxy-4-methoxybenzophenone; 50 mg/kg; iv; Female; B6C3F1
[12] = tested on: Rat; test: concentration in plasma after dosing; conditions: dosed: Nitrite, 80 mg/kg, oral, Female, F344
[13] = tested on: Rat; test: concentration in plasma after dosing; conditions: dosed: 678-39-7, 40 mg/kg, iv, Male, F344
[14] = tested on: Rat; test: concentration in kidney after dosing; conditions: 192 h; dosed: Perfluorooctanoic acid; 12 mg/kg; oral; Male; Harlan Sprague Dawley
[15] = tested on: Rat; test: concentration in liver after dosing; conditions: 12 h; dosed: Fluorotelomer alcohol 8+2; 24 mg/kg; oral; Male; Harlan Sprague Dawley
[16] = tested on: Rat; test: concentration in brain after dosing; conditions: 12 h; dosed: Perfluorooctanoic acid; 80 mg/kg; oral; Female; Harlan Sprague Dawley
[17] = tested on: Rat; test: concentration in plasma after dosing; conditions: dosed: 678-39-7, 40 mg/kg, iv, Female, Harlan Sprague-Dawley
[18] = tested on: Rat; test: concentration in kidney after dosing; conditions: 6 h; dosed: Fluorotelomer alcohol 8+2; 80 mg/kg; oral; Female; Harlan Sprague Dawley
[19] = tested on: Rat; test: concentration in plasma after dosing; conditions: dosed: 678-39-7, 40 mg/kg, iv, Male, F344; remark: listed apart in the source
[20] = tested on: Rat; test: concentration in brain after dosing; conditions: 6 h; dosed: Perfluorooctanoic acid; 80 mg/kg; oral; Female; Harlan Sprague Dawley
[21] = tested on: Rat; test: concentration in plasma after dosing; conditions: 5 min; dosed: 678-39-7; 12 mg/kg; iv; Male; F344
[22] = tested on: Rat; test: concentration in plasma after dosing; conditions: dosed: Fluorotelomer alcohol 8+2, 12 mg/kg, oral, Male, Harlan Sprague Dawley
[23] = tested on: Rat; test: concentration in brain after dosing; conditions: 0.5 h; dosed: Potassium Perfluorobutane Sulfonate; 20 mg/kg; oral; Male; Harlan Sprague Dawley
[24] = tested on: Rat; test: concentration in liver after dosing; conditions: 3 h; dosed: Potassium Perfluorobutane Sulfonate; 20 mg/kg; oral; Female; Harlan Sprague Dawley
[25] = tested on: Rat; test: concentration in plasma after dosing; conditions: 0.75 h; dosed: Potassium Perfluorobutane Sulfonate; 4 mg/kg; iv; Female; Harlan Sprague-Dawley
[26] = tested on: rat; test: concentration in lung after dosing (ugEq/g tissue); conditions: dosed: benzo[a]pyrene, iv, male, Wistar
[27] = tested on: rat; conditions: dosed: benzo[a]pyrene, 1 mg/kg, iv, male, Sprague Dawley

COc1ccc(C(=O)c2ccccc2)c(O)c1 [2-Hydroxy-4-methoxybenzophenone]
Conditions	concentration in plasma [µg/mL]
[1]	1.73
[2]	0.0372
[3]	0.0368
[4]	0.0182
[8]	11.5
[10]	0.619
[11]	0.311

Conditions	concentration in plasma [µg/mL]
[5], 10 h	0.0315
[5], 10 min	0.935
[6], 3 h	0.0913
[6], 10 min	0.357
[7], 3 h	0.0816
[7], 10 min	0.013
[9], 0.25 h	0.0555
[9], 4 h	0.084

O=N[O-] [Nitrite]
[12]
Conditions	concentration in plasma [µg/mL]
1 h	32.7
2 h	20.6

O=C(O)C(F)(F)C(F)(F)C(F)(F)C(F)(F)C(F)(F)C(F)(F)C(F)(F)F [Perfluorooctanoic acid]
Conditions	concentration in plasma [µg/mL]
[13], 5 min	350
[13], 6 h	66.1
[17], 1 h	2.62
[17], 24 h	0.0867
[19], 0.25 h	0.671
[19], 6 h	1.31
[19], 24 h	0.819
[22], 0.25 h	0.204
[22], 6 h	0.438

Conditions	concentration in brain [ng/g]	concentration in kidney [ng/g]	concentration in liver [ng/g]	concentration in plasma [µg/mL]
[14]	–	14100	–	–
[15]	–	–	1700	–
[16]	1000	–	–	–
[18]	–	2040	–	–
[20]	3290	–	–	–
[21]	–	–	–	0.0352

O=S(=O)([O-])C(F)(F)C(F)(F)C(F)(F)C(F)(F)F.[K+] [Potassium Perfluorobutane Sulfonate]
Conditions	concentration in brain [ng/g]	concentration in liver [ng/g]	concentration in plasma [µg/mL]
[23]	518	–	–
[24]	–	5050	–
[25]	–	–	6.45

c1ccc2c(c1)cc1ccc3cccc4ccc2c1c34 [benzo[a]pyrene]
concentration in lung, [26]
Conditions	2 mg/kg	6 mg/kg	15 mg/kg
0.5 h	1.06	16	25.8
0.75 h	2.68	5.85	13.7
1 h	2.4	2.76	17
1.5 h	1.07	5.3	38.5
2 h	14.7	5.84	37
3 h	0.34	0.4	7.07
4 h	0.04	2.64	22.4
5 h	0.68	12.4	33.2
5 min	5.17	33.9	46
6 h	0.06	6.27	22.6
8 h	9.32	5.09	18.4
10 min	1.31	13.6	26.1
20 min	2.8	17.3	23.4
24 h	–	–	10.2
32 h	–	3.9	15.7

[27]
Conditions	amount in bile after dosing [ng]
1.003 h	7.16
3.009 h	20.1
5.994 h	22.9
24 h	26.4
